Source: ChEMBL document CHEMBL4420076, “Amylin and calcitonin receptor agonist” (2017)
pEC50, pIC50: −log10 of the molar value. Numbered stars: 1 amine (or outer) side, 2 acyl side, 3 side chain; on linkers, the order of the positions; unused ones are H or OH. Side chains are listed from the residue outwards. Peptide text beside a SMILES is read from it. * marks the point of attachment. C20 diacid = O=C(O)CCCCCCCCCCCCCCCCCCC(=O)*; C18 diacid = O=C(O)CCCCCCCCCCCCCCCCC(=O)*; γGlu = O=C(O)[C@H](CCC(=O)[*:2])N[*:1]; AEEA = NCCOCCOCC(=O)O

Legend:
[1] = target: T1, Amylin receptor AMY3; CALCR/RAMP3 (Homo sapiens, UniProt O60896+P30988); assay: Agonist activity at human amylin receptor expressed in BHK570 cells co-expressing RAMP3 assessed as increase in intracellular cAMP concentration incubated for 3 hrs in absence of albumin by CRE luciferase reporter gene assay; type: functional, cell-based
T1 sequence (P30988 whole entry): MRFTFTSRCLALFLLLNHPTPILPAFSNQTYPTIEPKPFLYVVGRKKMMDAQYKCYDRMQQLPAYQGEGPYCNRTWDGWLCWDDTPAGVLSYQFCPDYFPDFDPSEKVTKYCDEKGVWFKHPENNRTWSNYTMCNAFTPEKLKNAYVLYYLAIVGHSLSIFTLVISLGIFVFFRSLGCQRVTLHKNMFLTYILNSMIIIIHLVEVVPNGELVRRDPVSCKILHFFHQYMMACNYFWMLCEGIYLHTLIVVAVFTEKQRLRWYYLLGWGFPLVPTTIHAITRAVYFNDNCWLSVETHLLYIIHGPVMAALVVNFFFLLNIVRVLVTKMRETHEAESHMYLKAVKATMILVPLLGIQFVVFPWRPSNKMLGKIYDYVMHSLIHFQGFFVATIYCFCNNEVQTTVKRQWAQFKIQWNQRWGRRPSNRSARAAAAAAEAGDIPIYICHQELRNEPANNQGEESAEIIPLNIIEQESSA
T1 sequence (O60896 whole entry): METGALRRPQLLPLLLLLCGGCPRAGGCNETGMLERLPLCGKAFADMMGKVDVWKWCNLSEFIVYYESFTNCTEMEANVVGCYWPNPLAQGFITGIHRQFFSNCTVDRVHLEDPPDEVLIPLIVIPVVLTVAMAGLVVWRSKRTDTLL

Calcitonin receptor [2] = target: T2, Calcitonin receptor (Homo sapiens, UniProt P30988); assay: Agonist activity at human calcitonin receptor expressed in BHK570 cells assessed as increase in intracellular cAMP concentration incubated for 3 hrs in absence of albumin by CRE luciferase reporter gene assay; type: functional, cell-based
T2 sequence (P30988 whole entry): T1 sequence (P30988 whole entry)

[3] = target: T1, Amylin receptor AMY3; CALCR/RAMP3; assay: Agonist activity at human amylin receptor expressed in BHK570 cells co-expressing RAMP3 assessed as increase in intracellular cAMP concentration incubated for 3 hrs in presence of 10% FBS by CRE luciferase reporter gene assay; type: functional, cell-based
Calcitonin receptor [4] = target: T2, Calcitonin receptor; assay: Agonist activity at human calcitonin receptor expressed in BHK570 cells assessed as increase in intracellular cAMP concentration incubated for 3 hrs in presence of 10% FBS by CRE luciferase reporter gene assay; type: functional, cell-based
[5] = Solubility in 100 mM glycylglycine buffer at pH 3.0 incubated for 18 hrs by UPLC analysis; type: physicochemical
[6] = Solubility in 100 mM glycylglycine buffer at pH 4.0 incubated for 18 hrs by UPLC analysis; type: physicochemical
[7] = Solubility in 100 mM bistrispropane buffer at pH 6.0 incubated for 18 hrs by UPLC analysis; type: physicochemical
[8] = Solubility in 100 mM glycylglycine buffer at pH 5.0 incubated for 18 hrs by UPLC analysis; type: physicochemical
[9] = Solubility in 100 mM bistrispropane buffer at pH 6.5 incubated for 18 hrs by UPLC analysis; type: physicochemical
[10] = Solubility in 100 mM bistrispropane buffer at pH 7.0 incubated for 18 hrs by UPLC analysis; type: physicochemical
[11] = Solubility in 100 mM bistrispropane buffer at pH 7.5 incubated for 18 hrs by UPLC analysis; type: physicochemical
[12] = Solubility in 100 mM bistrispropane buffer at pH 8.0 incubated for 18 hrs by UPLC analysis; type: physicochemical
[13] = target: T1, Amylin receptor AMY3; CALCR/RAMP3; assay: Displacement of [125I]-labeled rat amylin from human amylin receptor expressed in BHK570 cell membranes co-expressing RAMP3 incubated for 120 mins by scintillation proximity assay
Calcitonin receptor [14] = target: T2, Calcitonin receptor; assay: Displacement of [125I]-labeled human calcitonin from human calcitonin receptor expressed in BHK tkts13 cell membranes incubated for 1 hr by scintillation proximity assay
[15] = target: T3, Amylin receptor AMY3; CALCR/RAMP3 (Rattus norvegicus, UniProt P32214+Q9JJ73); assay: Displacement of [125I]-labeled rat amylin from rat amylin receptor expressed in BHK tkts13 cell membranes co-expressing RAMP3 incubated for 120 mins by scintillation proximity assay
T3 sequence (P32214 whole entry): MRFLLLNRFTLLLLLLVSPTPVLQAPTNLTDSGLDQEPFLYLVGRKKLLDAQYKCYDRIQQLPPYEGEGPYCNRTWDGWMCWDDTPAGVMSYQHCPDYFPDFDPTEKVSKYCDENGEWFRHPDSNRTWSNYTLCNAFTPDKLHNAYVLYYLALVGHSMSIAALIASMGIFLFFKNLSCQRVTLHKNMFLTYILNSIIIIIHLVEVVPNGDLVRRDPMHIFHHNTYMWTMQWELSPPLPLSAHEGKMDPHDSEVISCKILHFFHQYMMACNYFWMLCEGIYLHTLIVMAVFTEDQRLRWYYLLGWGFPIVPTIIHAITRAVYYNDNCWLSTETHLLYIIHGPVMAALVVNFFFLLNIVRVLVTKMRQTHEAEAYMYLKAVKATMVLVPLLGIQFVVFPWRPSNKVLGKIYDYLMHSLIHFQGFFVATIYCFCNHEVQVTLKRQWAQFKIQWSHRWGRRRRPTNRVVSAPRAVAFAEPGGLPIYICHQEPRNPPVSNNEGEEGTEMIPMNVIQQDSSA
T3 sequence (Q9JJ73 whole entry): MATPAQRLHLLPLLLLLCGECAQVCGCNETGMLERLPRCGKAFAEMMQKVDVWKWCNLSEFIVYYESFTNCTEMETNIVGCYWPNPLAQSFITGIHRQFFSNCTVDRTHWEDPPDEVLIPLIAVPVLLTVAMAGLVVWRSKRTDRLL

Rattus norvegicus [16] = assay: Reduction in food intake in Sprague-Dawley rat at 3 nmol/kg measured 0 to 24 hrs post dose relative to control; type: functional; parameters: scale not given: the % may be the effect or the level left
Rattus norvegicus [17] = assay: Reduction in food intake in Sprague-Dawley rat at 3 nmol/kg measured 24 to 48 hrs post dose relative to control; type: functional; parameters: scale not given: the % may be the effect or the level left
[18] = Stability in pH 7.5 buffer assessed as lag time for fibril formation at 1 uM by Thioflavin T based fluorescence assay; type: physicochemical; conditions: pH 7.5, 1 µM
[19] = Stability in pH 7.5 buffer assessed as compound recovery at 1 uM by Thioflavin T based fluorescence assay; type: physicochemical; conditions: read-out: Drug recovery
[20] = target: T1, Amylin receptor AMY3; CALCR/RAMP3; assay: Displacement of [125I]-labeled rat amylin from human amylin receptor expressed in BHK tkts13 whole cells co-expressing RAMP3 incubated for 60 mins by scintillation proximity assay; type: cell-based

Row | pEC50 [1] | pEC50 (Calcitonin receptor [2]) | pEC50 [3] | pEC50 (Calcitonin receptor [4]) | solubility at 18 h [5] [µM] | solubility at 18 h [6] [µM] | solubility at 18 h [7] [µM] | solubility at 18 h [8] [µM] | solubility at 18 h [9] [µM] | solubility at 18 h [10] [µM] | solubility at 18 h [11] [µM] | solubility at 18 h [12] [µM] | pIC50 [13] | pIC50 (Calcitonin receptor [14]) | pIC50 [15] | Time [18] [h] | remaining at 1 µM [19] [%] | pIC50 [20] | SMILES | Activity (Rattus norvegicus [16]) [%] | Activity (Rattus norvegicus [17]) [%]
1 | 10.68 | 10.55 | 10.00 | 10.36 | ≥ 200 | ≥ 200 | ≥ 200 | ≥ 200 | ≥ 200 | ≥ 200 | ≥ 200 | ≥ 200 | 10.13 | 10.34 | 9.94 |  |  |  | CC(=O)N[C@@H](C)C(=O)N[C@@H](CO)C(=O)N[C@@H](CCC(=O)O)C(=O)N[C@@H](CC(C)C)C(=O)N[C@@H](CO)C(=O)N[C@H](C(=O)N[C@@H](C)C(=O)N[C@@H](C)C(=O)N[C@@H](CC(C)C)C(=O)NCC(=O)N[C@@H](CCCNC(=N)N)C(=O)N[C@@H](CC(C)C)C(=O)N[C@@H](CO)C(=O)N[C@@H](C)C(=O)N[C@@H](CCCCNC(=O)CC[C@H](NC(=O)CCCCCCCCCCCCCCCCCCC(=O)O)C(=O)O)C(=O)N[C@@H](CC(C)C)C(=O)N[C@@H](Cc1cnc[nH]1)C(=O)N[C@@H](CCC(=O)O)C(=O)N[C@@H](CC(C)C)C(=O)N[C@@H](C)C(=O)N[C@H](C(=O)N[C@@H](CC(C)C)C(=O)N1CCC[C@H]1C(=O)N[C@@H](CCCNC(=N)N)C(=O)N[C@H](C(=O)N[C@@H](CCC(=O)O)C(=O)N[C@H](C(=O)NCC(=O)N[C@@H](CO)C(=O)NCC(=O)N[C@@H](CO)C(=O)N1CCC[C@H]1C(N)=O)[C@@H](C)O)[C@@H](C)O)[C@@H](C)O)[C@@H](C)O (Ac-ASELSTAALGRLSAK([γGlu-C20 diacid])LHELATLPRTETGSGSP-NH2) |  | 
2 |  |  | 10.15 | 10.28 | ≥ 200 | ≥ 200 | ≥ 200 |  | ≥ 200 | ≥ 200 | ≥ 200 | ≥ 200 | 9.91 | 10.24 |  | > 45 | 100 |  | CC(C)C[C@H](NC(=O)CNC(=O)[C@H](CO)NC(=O)[C@H](C)NC(=O)CC[C@H](NC(=O)CCCCCCCCCCCCCCCCC(=O)O)C(=O)O)C(=O)N[C@@H](CO)C(=O)N[C@H](C(=O)N[C@@H](C)C(=O)N[C@@H](C)C(=O)N[C@@H](CC(C)C)C(=O)NCC(=O)N[C@@H](CCCNC(=N)N)C(=O)N[C@@H](CC(C)C)C(=O)N[C@@H](CO)C(=O)N[C@@H](CCC(N)=O)C(=O)N[C@@H](CCC(=O)O)C(=O)N[C@@H](CC(C)C)C(=O)N[C@@H](Cc1cnc[nH]1)C(=O)N[C@@H](CCC(=O)O)C(=O)N[C@@H](CC(C)C)C(=O)N[C@@H](CCC(N)=O)C(=O)N[C@H](C(=O)N[C@@H](Cc1ccc(O)cc1)C(=O)N1CCC[C@H]1C(=O)N[C@@H](CCCNC(=N)N)C(=O)N[C@H](C(=O)N[C@@H](CCC(=O)O)C(=O)N[C@H](C(=O)NCC(=O)N[C@@H](CO)C(=O)NCC(=O)N[C@H](C(=O)N[C@@H](Cc1ccc(O)cc1)C(N)=O)[C@@H](C)O)[C@@H](C)O)[C@@H](C)O)[C@@H](C)O)[C@@H](C)O ({C18 diacid-γGlu}-ASGLSTAALGRLSQELHELQTYPRTETGSGTY-NH2) | 44 | 8
3 | 10.77 | 10.92 | 10.17 | 10.46 | ≥ 200 | ≥ 200 | ≥ 200 | ≥ 200 | ≥ 200 | ≥ 200 | ≥ 200 | ≥ 200 | 9.80 | 10.30 |  | > 45 | 100 |  | CC(C)C[C@H](NC(=O)[C@H](C)NC(=O)[C@H](C)NC(=O)[C@@H](NC(=O)[C@H](CO)NC(=O)[C@H](CC(C)C)NC(=O)[C@H](CCC(=O)O)NC(=O)[C@H](CO)NC(=O)[C@H](C)NC(=O)COCCOCCNC(=O)COCCOCCNC(=O)CC[C@H](NC(=O)CCCCCCCCCCCCCCCCCCC(=O)O)C(=O)O)[C@@H](C)O)C(=O)NCC(=O)N[C@@H](CCCNC(=N)N)C(=O)N[C@@H](CC(C)C)C(=O)N[C@@H](CO)C(=O)N[C@@H](C)C(=O)N[C@@H](CCC(=O)O)C(=O)N[C@@H](CC(C)C)C(=O)N[C@@H](Cc1cnc[nH]1)C(=O)N[C@@H](CCC(=O)O)C(=O)N[C@@H](CC(C)C)C(=O)N[C@@H](C)C(=O)N[C@H](C(=O)N[C@@H](CC(C)C)C(=O)N1CCC[C@H]1C(=O)N[C@@H](CCCNC(=N)N)C(=O)N[C@H](C(=O)N[C@@H](CCC(=O)O)C(=O)N[C@H](C(=O)NCC(=O)N[C@@H](CO)C(=O)NCC(=O)N[C@@H](CO)C(=O)N1CCC[C@H]1C(N)=O)[C@@H](C)O)[C@@H](C)O)[C@@H](C)O ({C20 diacid-γGlu-AEEA-AEEA}-ASELSTAALGRLSAELHELATLPRTETGSGSP-NH2) |  | 
4 |  | 10.39 | 10.00 | 10.43 | ≥ 200 | ≥ 200 | ≥ 200 | ≥ 200 | ≥ 200 | ≥ 200 | ≥ 200 | ≥ 200 | 9.85 | 9.99 | 10.59 |  |  | 8.70 | CC(C)C[C@H](NC(=O)[C@H](C)NC(=O)[C@H](C)NC(=O)[C@@H](NC(=O)[C@H](CO)NC(=O)[C@H](CC(C)C)NC(=O)[C@H](CCC(=O)O)NC(=O)[C@H](CO)NC(=O)[C@H](C)NC(=O)CC[C@H](NC(=O)CCCCCCCCCCCCCCCCCCC(=O)O)C(=O)O)[C@@H](C)O)C(=O)NCC(=O)N[C@@H](CCCNC(=N)N)C(=O)N[C@@H](CC(C)C)C(=O)N[C@@H](CO)C(=O)N[C@@H](C)C(=O)N[C@@H](CCC(=O)O)C(=O)N[C@@H](CC(C)C)C(=O)N[C@@H](Cc1cnc[nH]1)C(=O)N[C@@H](CCC(=O)O)C(=O)N[C@@H](CC(C)C)C(=O)N[C@@H](C)C(=O)N[C@H](C(=O)N[C@@H](Cc1ccc(O)cc1)C(=O)N1CCC[C@H]1C(=O)N[C@@H](CCCNC(=N)N)C(=O)N[C@H](C(=O)N[C@@H](CCC(=O)O)C(=O)N[C@H](C(=O)NCC(=O)N[C@@H](CO)C(=O)NCC(=O)N[C@@H](C)C(=O)N1CCC[C@H]1C(N)=O)[C@@H](C)O)[C@@H](C)O)[C@@H](C)O ({C20 diacid-γGlu}-ASELSTAALGRLSAELHELATYPRTETGSGAP-NH2) |  | 
